These results are taken from a melting point compilation (Tetko et al.; mined from patent text by program, amines drawn as free bases though some values may be those of a salt).

SMILES strings stand for the structures.

For `Cc1ccc(-c2ccc(C(=O)O)cc2)c(N)c1`, the melting point (as a rule, the temperature, or range, at which the solid turns liquid) was in the range of 273 to 278 °C.

As to `COC(=O)[C@H](CS)NC(=O)[C@@H]1CCC(=S)N1`, the melting point lay within 177 to 178 °C.

The compound `COc1ccc(S(=O)(=O)N(CCC(N)=O)c2ccc(Cl)cc2Cc2c(F)cccc2F)cc1OC` displayed a melting point of 189 °C.

Consider `COC(=O)c1cc(N(C)C)c(C(C)(C)C)c(N(C)C)c1`, for which the melting point is 80 to 82 °C.

`CCCCN1C(=O)CC(C2C(=O)N(CCCC)C(=O)C2c2cc(C(C)(C)C)c(O)c(C(C)(C)C)c2)C1=O` (configuration not stated) had a melting point of 151 to 153 °C.

Regarding `COc1ccc2c(c1)Sc1cc(C#N)ccc1N2`, the melting point was in the range of 198 to 199 °C.

Consider `O=C1[C@H]2CCC[C@H]2Nc2ccccc2N1Cc1ccc2ccccc2c1` (relative stereo), for which the melting point was 148 °C.

In turn, `CC(C)(C)NCC(O)COc1ccccc1C(=O)Nc1cccc2c1CC(=O)N2` (configuration not stated) returned a melting point of 160 °C.

As for `CSCS[C@H](C)[C@](O)(Cn1cncn1)c1ccc(Cl)cc1`, the melting point lay within 163 to 164 °C.

Turning to `C=CCc1cc2c(C)cc(=O)oc2c(C)c1O`, the melting point lay in the range of 166 to 167 °C.

Turning to `C[C@@H](n1cnc2cccc(F)c2c1=O)[C@](O)(Cn1cncn1)c1ccc(F)cc1F`, the melting point was 94 to 122 °C.

For the compound `FC(F)Oc1cc(Oc2ccnc(-c3cnccn3)n2)ccn1`, the melting point fell in the range of 128 to 129 °C.

As for `CC1Cc2ccc(Cl)cc2C(c2ccc(N)cc2)=NN1C(=O)C(F)(F)F` (configuration not stated), the melting point was 165 to 167 °C.

In turn, `COc1cc(Nc2c(C#N)cnc3cc4cc(OCCN5CCC(O)CC5)c(OC)cc4cc23)c(Cl)cc1C` had a melting point of 210 to 215 °C.

With `CCON=C(CC)C1=C(OC(=O)c2ccccc2)CC(c2c(C)cc(C)cc2C)CC1=O` (configuration not stated), the melting point lay in the range of 94 to 95.5 °C.

In turn, `COc1cccn2c(=O)c(CCOS(C)(=O)=O)c(C)nc12` returned a melting point of 180 °C.

`CCOC(=O)c1cc([N+](=O)[O-])c2ccccn2c1=O` had a melting point of 169 to 170 °C.

The compound `CC(C)n1nc(-c2c(NC(C)(C)C)nc(N)nc2-c2ccccc2)ccc1=O` displayed a melting point of 202 to 204 °C.

In turn, `COC(=O)C1=C(C)NC(c2ncsc2Cl)=NC1c1ccc(F)cc1Cl` (configuration not stated) had a melting point of 98 to 100 °C.

As for `Cc1nc(-c2cc3[nH]c(=O)c(=O)[nH]c3cc2[N+](=O)[O-])c[nH]1`, the melting point was above 300 °C.

In turn, `NC(=S)NCc1ccco1` registered a melting point of 80 to 91 °C.

For the compound `O=C1C2C=CC(O2)C(=O)N1c1ccccc1`, the melting point lay in the range of 150 to 152 °C.

In the case of `COc1c(C(N)=O)nnn1Cc1ccccc1Cl`, the melting point is 185 to 187 °C.

`Cc1ccc(C2=NNC(=O)CC2)cc1OCC1CO1` (configuration not stated) displayed a melting point of 128 to 132 °C.

The compound `CCOC(=O)c1c(CCl)nc2sc3c(c2c1-c1ccc(OC)c(OC)c1)CN(C(=O)OCc1ccccc1)CC3` yielded a melting point of 125 to 126 °C.

Compound `C=CC1(C(=O)c2ccc(Cl)cc2)C=CC=CC1Cl` (configuration not stated) had a melting point of 120 to 122 °C.

Consider `COc1cc2c(cc1OC)[C@@H]1CN(C)CC[C@@H]1N=C2c1ccc([N+](=O)[O-])cc1` (relative stereo), for which the melting point is 194 to 195 °C.

Take `O=C(Nc1ccc(C(=O)N2Cc3cccn3-c3ccccc32)cc1)c1cccc(Cl)c1Cl`: the melting point was 230 to 240 °C.

Turning to `COc1ccc(C(=O)Nc2ccccc2)cc1NS(=O)(=O)c1cccc(C#N)c1`, the melting point was 195 to 197 °C.

In turn, `Cc1cccc2[nH]c(=O)n(CCCN3CC=C(c4ccc(Cl)cc4)CC3)c(=O)c12` showed a melting point of 175 to 178 °C.

For the compound `COC(=O)c1ccc2nc3c(C)sc(C)c3c(=O)n2c1`, the melting point is 209 to 210 °C.

`CN(C)c1cccc(OC(=O)NC2C(=O)N(CCC(C)(C)C)c3ccccc3N(c3ccccc3F)C2=O)c1` (configuration not stated) registered a melting point of 160 to 161 °C.

`COc1cc(Br)c(Br)cc1C=NNC(=N)NN=Cc1cc(Br)c(Br)cc1OC` came in with a melting point of 265 to 267 °C.

Turning to `c1cn(-c2ccnc(-n3ccnc3)n2)cn1`, the melting point is 131 to 132 °C.

On to `CC(C#N)=CCN1C(=O)c2ccccc2S1(=O)=O`, for which the melting point was in the range of 107 to 108 °C.

On to `c1ccc(-c2ccc3cnc(NCc4cccnc4)nn23)cc1`, for which the melting point lay within 201 to 203 °C.

Compound `OCc1ccccc1OCc1ncc2ccccc2n1` yielded a melting point of 92 to 96 °C.

`CCCCCCNC(=O)c1ccc(N2N=C(CCC)C(=CNc3ccccc3CC)C2=O)cc1`: the melting point was found to be 46.7 °C.

Compound `N#Cc1ccc(-c2nc(-c3ccc(F)cc3)c(-c3ccncc3)[nH]2)cc1` showed a melting point of 268 to 269 °C.

Compound `O=C(Nc1ccc(-c2ccccc2)s1)C1CCCCC1` came in with a melting point of 174 °C.

`CNC(=O)C(NC(=O)OCc1ccccc1)C(N)=O` (configuration not stated) yielded a melting point of 178 to 180 °C.

Regarding `CCCC(=O)Nc1cccc(C(c2c(O)c3c(oc2=O)CCCCCC3)C2CC2)c1` (configuration not stated), the melting point is 222 to 224 °C.

`Nc1nc2[nH]c(CCCCCCc3ccc(C(=O)N[C@@H](CCC(=O)O)C(=O)O)s3)cc2c(=O)[nH]1` displayed a melting point of 183 to 184 °C.

For the compound `c1ccc(N2CCN(Cc3nc4ccccc4[nH]3)CC2)nc1`, the melting point lay within 220 to 221 °C.

Regarding `CC(=O)N(C)Cc1ccc(NC(=O)/C=C/c2cnn(C)c2-c2ccc(F)cc2)cc1`, the melting point is 192 to 193 °C.

The compound `C#CC(O)c1ccc(C(=O)OC)s1` (configuration not stated) had a melting point of 67 °C.

Compound `O=[N+]([O-])c1ccc2c(c1)CNCCS2` came in with a melting point of 104 to 105 °C.

Compound `N#Cc1cnc2cc3c(cc2c1Nc1ccc(Oc2ccccc2)cc1)ncn3CCN1CCOCC1` registered a melting point above 260 °C.

Compound `COC(=O)COc1cc2cccnc2c(-c2cccc([N+](=O)[O-])c2)n1` registered a melting point of 160 to 162 °C.

Consider `CC(C)(C)OC(=O)N1CCc2onc(O)c2C1`, for which the melting point was in the range of 151 to 152 °C.

In turn, `COc1cc(COc2nn(-c3ccccc3)cc2/C=C/C(N)=S)ccc1OCc1nc(-c2ccco2)oc1C` displayed a melting point of 129 to 131 °C.

In turn, `CC(C)(C)C(Cl)=NNc1cc(Cl)ccc1Cl` gave a melting point of 50 to 51 °C.

`OC(c1ccc2c(c1)CCCN2)(C(F)(F)F)C(F)(F)F` returned a melting point of 115 to 116 °C.

`CCC([O-])=C(C(=O)OC)N1C(=O)CC1[N+](CC)(CC)CC` (configuration not stated): the melting point was 109 to 110 °C.

For `O=S(=O)(NCc1ccccc1)c1ccc(N(OCC2CCCCC2)c2ncc3[nH]cnc3n2)cc1`, the melting point was 222 to 224 °C.

`COc1ccc(/C=C(\C)C(=O)O)cc1` came in with a melting point of 178 to 182 °C.

For `CCCc1c(OCCCOc2ccccc2)ccc2c1OC(CCC(=O)O)(CCC(=O)O)CC2=O`, the melting point came out at 162 °C.

In the case of `CN1Cc2cccnc2C(N2CC[N+]([O-])(C(=O)Cc3ccncc3)CC2)c2ccc(Cl)cc21` (configuration not stated), the melting point lay in the range of 115 to 118 °C.

Compound `CCOC(=O)C(NC(=O)c1ccccc1)C(C)C` (configuration not stated) returned a melting point of 74 °C.

For the compound `CS(=O)(=O)c1ccc(Oc2cc(OCC3CCOCC3)c3[nH]c(C4=NCC(CCO)S4)cc3c2)cc1` (configuration not stated), the melting point lay within 104 to 105 °C.

As to `Cc1oc(-c2ccccc2)nc1CCOc1ccc(CCCC2OC(=O)NC2=O)cn1` (configuration not stated), the melting point is 169 to 171 °C.

In turn, `NCc1cccc(OCc2nc(-c3ccc(Cl)cc3)cs2)c1` came in with a melting point of 117 to 118 °C.

As for `CCN(CC)C(=O)n1c(SC(F)(F)C(F)F)nc(-c2ccccc2)c1-c1ccccc1`, the melting point lay within 108 to 109 °C.

The compound `Fc1cc(F)c2c(c1)C(n1cc[nH]c1=S)CC2` (single isomer, unassigned; (+)) gave a melting point of 191 to 193 °C.

Compound `O=C(O)c1ccc2c(c1)C=CC(=CCl)CO2` showed a melting point above 260 °C.

For the compound `CCCCCCCCCCCCOP(=O)(CC(=O)Nc1c(C(C)C)cccc1C(C)C)c1ccccc1` (configuration not stated), the melting point lay in the range of 66 to 68 °C.

On to `CCOC(=O)c1c(=O)c2c(F)c(F)c(F)c(F)c2n2ccccc12`, for which the melting point fell in the range of 198 to 200 °C.

`CNN(NC)C(=O)Nc1cccc2c1C(=O)c1c-2n[nH]c1-c1ccc(C)s1` registered a melting point above 280 °C.

For the compound `O=C1CC2OC(CS(=O)Cc3ccccc3)CN12` (racemic), the melting point is 80.5 to 94.5 °C.

Turning to `O=c1cc(C(F)(F)F)nc(ON=C2CCCC2)n1-c1cc(Oc2ccccc2[N+](=O)[O-])c(Cl)cc1F`, the melting point was in the range of 76 to 78 °C.

Regarding `Cc1ccc(NC(=O)c2c(Cl)cccc2Cl)c2nccc(N3CCN(C)C3=O)c12`, the melting point was 262 to 264 °C.

Compound `Nc1ccc(-c2noc(-c3cnn4c(C(F)(F)F)cc(-c5ccc(C(F)(F)F)c(OCC(F)(F)F)c5)nc34)n2)cn1` returned a melting point of 284 °C.

`CCCn1c(=O)c2c(nc(/C=C/c3ccc(OC)c(OC(C)=O)c3)n2C)n(CCC)c1=O` came in with a melting point of 201 to 202 °C.

Take `O=C(Cc1ccccc1)NCO`: the melting point was determined as 78 °C.

As for `CON=Cc1ccc2c(c1)ncn2-c1cccc(-n2ccnc2)c1`, the melting point fell in the range of 197 to 199 °C.

As to `CC(C)=CCCC(C)=CCOc1ccc(C(=O)NCC(=O)Nc2ccccn2)cc1`, the melting point fell in the range of 105 to 106 °C.

`O=C(NCCc1ccc(Cl)cc1)c1c(Cl)ccc2nc(N3CCC(C(=O)O)CC3)ccc12`: the melting point lay in the range of 231 to 234 °C.

For the compound `CCCCOC(=O)CNC(=O)c1ncccc1OC`, the melting point is 60 to 62 °C.

The compound `CNC(=O)NC1CCCCc2sccc21` (configuration not stated) gave a melting point of 220 to 222 °C.

On to `CCOC(=O)C(=NOC(C)C)c1csc(N)n1`, for which the melting point lay in the range of 162 to 164 °C.

`NC(=S)Nc1cc(Cl)ccc1N1CCOCC1` registered a melting point of 174 to 175 °C.

`COc1cccc2c1CC(C(=O)NCCOc1ccc(C(=O)O)cc1)N2S(=O)(=O)c1ccc(-c2ccc(F)cc2)cc1` (configuration not stated) had a melting point of 113 °C.

Regarding `CCCOc1cc(C(=O)NC2CC(C)(C)NC(C)(C)C2)ccc1-c1cc2cc(Cl)c(Cl)cc2[nH]1`, the melting point is above 250 °C.

As for `COc1cc(N2CCC(N3CCCN(C)CC3)CC2)ccc1Nc1ncc2ccc(-c3ccccc3N(C)S(C)(=O)=O)n2n1`, the melting point lay in the range of 100 to 109 °C.

`O=C(O)Cc1ccc(Oc2ccc3c(c2)S(=O)(=O)NC2CCCN32)cc1` (configuration not stated): the melting point was 166 to 169 °C.

Regarding `[N-]=[N+]=NC(=O)C=Cc1cccc2[nH]ccc12`, the melting point lay in the range of 105 to 106 °C.

Turning to `CN1CCC(Sc2ccc3[nH]c(=O)[nH]c3c2)CC1`, the melting point was 214 to 215 °C.
